Data: article PMC10583261 (CPT: Pharmacometrics & Systems Pharmacology, 2023)
Converted amounts (≈) assume the structure as drawn. “And” between values parts separate entries of the source, which are not always exact repeats. Equal values may be shown once. Read-outs that look alike come from different tables or passages of the source.

What was measured:
[1] = type: in vivo, human
[2] = ref data on file, cited from earlier work
[3] = weak-base compound; ref data on file; cited from earlier work
[4] = final population PK model, healthy subjects

N#Cc1ccc(N2CCN(Cc3ccc(COc4cccc5c4CN([C@H]4CCC(=O)NC4=O)C5=O)cc3)CC2)c(F)c1 [mezigdomide]
decrease in ka with high-fat meal ([1]; fed vs fasted, model-estimated): ~ 30% | increase in Tlag with high-fat meal ([1]; fed vs fasted, model-estimated): ~ 0.85 h | increase of relative oral bioavailability F with high-fat meal ([1]; fed vs fasted, model-estimated): ~ 30% | interindividual variability (IIV) of central volume of distribution V1 ([1]; final population PK model): 63% and 63.4% | interindividual variability (IIV) of clearance ([1]; final population PK model): 40% and 39.9% and ~ 40% | interindividual variability (IIV) of intercompartmental clearance ([1]; final population PK model): 26% | interindividual variability (IIV) of peripheral volume of distribution ([1]; final population PK model): 26% | interoccasion variability (IOV) of absorption rate constant ka ([1]; final population PK model): 65% | V1pop, distribution volume of the central compartment [1, 4]: 440 L | V2pop, distribution volume of the peripheral compartment [1, 4]: 243 L | dose-exposure relationship ([1]; healthy subjects, 0.4–3.2 mg): linear | absorption rate constant ([1]; population PK parameter, healthy subjects (abstract)): 1.18 h⁻¹ | decrease in relative oral bioavailability F with PPI co-administration ([1]; rabeprazole vs no PPI, model-estimated): ~ 64% | Solubility ([2]; pH 1): 133 µg/mL (≈ 234 µM) | Solubility ([2]; pH 5): 1 µg/mL (≈ 1.76 µM) | decrease of solubility from pH 1 to pH 5 [2]: ~ 100 fold | dissociation constant [3]: 6
